# In US6800621B2, “Imidazo[4,5-b]-pyridiniummethyl-containing cephem compounds having broad antibacterial spectrum activity” (Shionogi & Co., Ltd., priority 1998, dated 2004):
# Where a name gives a salt, the structure may show the parent alone. Read-outs that look alike come from different tables or passages of the source.
# Tests used:
# S.aureus SMITH = experiment: MIC by agar dilution method; format: cell-based
# Protocol: (§1) The minimal inhibitory concentration (MIC) of compound (I) against various bacteria was determined by an agar dilution method. As reference compounds, used were cefozopran hydrochloride (CZOP) described in JP(A) Kokai H03-47189, cefoselis sulfate (CFSL) described in JP(A) Kokai H07-196665 and WO97/41128, compound A of which 3-side chain is a type of imidazo[4,5-c]pyridiniummethyl, and vancomycin. In the table, “Ex5-3”, for example, represents the end compound of the present invention obtained in Example 5-3, and the others are similarly expressed.
# S.aureus SR14 = experiment: MIC by agar dilution method; format: cell-based
# Protocol: as §1
# S.aureus SR3637 [1] = experiment: MIC by agar dilution method; format: cell-based
# Protocol: as §1
# S.pneumoniae SR16675 = experiment: MIC by agar dilution method; format: cell-based
# Protocol: as §1
# S.aureus SR3626 = experiment: MIC by agar dilution method; format: cell-based
# Protocol: as §1
# S.mitis SR16376 = experiment: MIC by agar dilution method; format: cell-based
# Protocol: as §1
# S.pneumoniae Type 1 = experiment: MIC by agar dilution method; format: cell-based
# Protocol: as §1
# S.aureus SR3637 [2] = experiment: ED50 mouse/S.aureus SR3637; format: in vivo
# P.aeruginosa SR24 = experiment: MIC by agar dilution method; format: cell-based; conditions: P.aeruginosa SR24, G(−)
# Protocol: as §1
# E.coli NIH JC-2 = experiment: MIC by agar dilution method; format: cell-based; conditions: E.coli NIH JC-2, G(−)
# Protocol: as §1
# E.coli SR5028 = experiment: MIC by agar dilution method; format: cell-based; conditions: E.coli SR5028, G(−)
# Protocol: as §1
# E.cloacae ATCC 13047 = experiment: MIC by agar dilution method; format: cell-based; conditions: E.cloacae ATCC 13047, G(−)
# Protocol: as §1
# S.marvescens ATCC 13880 = experiment: MIC by agar dilution method; format: cell-based; conditions: S.marvescens ATCC 13880, G(−)
# Protocol: as §1
# P.aeruginosae SR5393 = experiment: MIC by agar dilution method; format: cell-based; conditions: P.aeruginosae SR5393, G(−)
# Protocol: as §1
# E.faecalis SR1004 = experiment: MIC by agar dilution method; format: cell-based; conditions: E.faecalis SR1004, G(+)
# Protocol: as §1
# E.cloacae SR4321 = experiment: MIC by agar dilution method; format: cell-based; conditions: E.cloacae SR4321, G(−)
# Protocol: as §1
# P.vulgaris CN-329 = experiment: MIC by agar dilution method; format: cell-based; conditions: P.vulgaris CN-329, G(−)
# Protocol: as §1
MIC (P.aeruginosa SR24) [µg/mL],"MIC (S.aureus SMITH; S.aureus SMITH, G(+)) [µg/mL]",MIC (E.coli NIH JC-2) [µg/mL],"MIC (S.aureus SR14; S.aureus SR14, G(+)) [µg/mL]",MIC (E.coli SR5028) [µg/mL],MIC (E.cloacae ATCC 13047) [µg/mL],"MIC (S.aureus SR3637 [1]; S.aureus SR3637 (MRSA), G(+)) [µg/mL]","MIC (S.pneumoniae SR16675; S.pneumoniae SR16675, G(+)) [µg/mL]","MIC (S.aureus SR3626; S.aureus SR3626 (MRSA), G(+)) [µg/mL]","MIC (S.mitis SR16376; S.mitis SR16376, G(+)) [µg/mL]",MIC (S.marvescens ATCC 13880) [µg/mL],MIC (P.aeruginosae SR5393) [µg/mL],MIC (E.faecalis SR1004) [µg/mL],"MIC (S.pneumoniae Type 1; S.pneumoniae Type 1, G(+)) [µg/mL]",MIC (E.cloacae SR4321) [µg/mL],MIC (P.vulgaris CN-329) [µg/mL],Structure (SMILES),ED50 (S.aureus SR3637 [2]) [mg/kg],also measured
–,–,–,–,–,–,–,–,–,–,–,–,–,–,–,–,"CN[C@H](CC(C)C)C(=O)N[C@H]1C(=O)N[C@@H](CC(N)=O)C(=O)N[C@H]2C(=O)N[C@H]3C(=O)N[C@H](C(=O)N[C@H](C(=O)O)c4cc(O)cc(O)c4-c4cc3ccc4O)[C@H](O)c3ccc(c(Cl)c3)Oc3cc2cc(c3O[C@@H]2O[C@H](CO)[C@@H](O)[C@H](O)[C@H]2O[C@H]2C[C@](C)(N)[C@H](O)[C@H](C)O2)Oc2ccc(cc2Cl)[C@H]1O [VCM, vancomycin, reference compound]",–,"MIC (S.aureus SMITH; Staphylococcus aureus): 0.78 µg/mL; MIC (S.aureus SR14; Staphylococcus aureus, SR14): 0.78 µg/mL; MIC (S.aureus SR3637 [1]; Staphylococcus aureus, MRSA): 3.13 µg/mL; MIC (S.pneumoniae SR16675; Streptococcus pneumoniae, SR16675): 0.2 µg/mL; MIC (S.aureus SR3626; Staphylococcus aureus, MRSA): 3.13 µg/mL; MIC (S.mitis SR16376; Streptococcus mitis, SR16376): 0.39 µg/mL; MIC (S.pneumoniae Type 1; Streptococcus pneumoniae, TYPE1): 0.39 µg/mL; ED50 (S.aureus SR3637 [2]; Staphylococcus aureus, read-out: ED50): 5.66 mg/kg"
3.13,0.78,0.2,0.78,1.56,0.78,6.25,0.78,6.25,0.2,0.2,6.25,50,0.025,12.5,0.39,CNCCCn1cnc2c1ccc[n+]2CC1=C(C(=O)[O-])N2C(=O)C(NC(=O)C(=NOCF)c3nsc(N)n3)C2SC1.Cl (stereo not shown) [Ex6-3],6.43,–
–,–,–,–,–,–,–,–,–,–,–,–,–,–,–,–,"CO/N=C(\C(=O)N[C@@H]1C(=O)N2C(C(=O)[O-])=C(Cn3cc[n+]4ncccc34)CS[C@H]12)c1nsc(N)n1 [CZOP, cefozopran hydrochloride, reference compound]",–,"MIC (P.aeruginosa SR24; Pseudomonas aeruginosa, read-out: MIC): 0.78 µg/mL; MIC (S.aureus SMITH; Staphylococcus aureus, S.aureus SMITH, G(+), read-out: MIC): 0.78 µg/mL; MIC (E.coli NIH JC-2; Escherichia coli, NIHJC2, read-out: MIC): 0.05 µg/mL; MIC (S.aureus SR14; Staphylococcus aureus, S.aureus SR14, G(+), read-out: MIC): 0.78 µg/mL; MIC (E.coli SR5028; Escherichia coli, read-out: MIC): 0.78 µg/mL; MIC (E.cloacae ATCC 13047; Enterobacter cloacae, ATCC13047, read-out: MIC): 0.2 µg/mL; MIC (S.aureus SR3637 [1]; Staphylococcus aureus, S.aureus SR3637 (MRSA), G(+), read-out: MIC): 50 µg/mL; MIC (S.pneumoniae SR16675; Streptococcus pneumoniae, S.pneumoniae SR16675, G(+), read-out: MIC): 0.78 µg/mL; MIC (S.aureus SR3626; Staphylococcus aureus, S.aureus SR3626 (MRSA), G(+), read-out: MIC): 50 µg/mL; MIC (S.mitis SR16376; Streptococcus mitis, S.mitis SR16376, G(+), read-out: MIC): 0.2 µg/mL; MIC (S.marvescens ATCC 13880; read-out: MIC): 0.1 µg/mL; MIC (P.aeruginosae SR5393; read-out: MIC): 1.56 µg/mL; MIC (E.faecalis SR1004; Enterococcus faecalis, read-out: MIC): 25 µg/mL; MIC (S.pneumoniae Type 1; Streptococcus pneumoniae, TYPE1, S.pneumoniae Type 1, G(+), read-out: MIC): 0.05 µg/mL; MIC (E.cloacae SR4321; Enterobacter cloacae, read-out: MIC): 6.25 µg/mL; MIC (P.vulgaris CN-329; Proteus vulgaris, CN329, read-out: MIC): 0.2 µg/mL"
1.56,1.56,0.39,1.56,3.13,0.78,3.13,0.78,3.13,0.1,0.39,6.25,50,0.025,25,0.78,CCON=C(C(=O)NC1C(=O)N2C(C(=O)[O-])=C(C[n+]3cccc4c3ncn4CCCNC)CSC12)c1nsc(N)n1.Cl (stereo not shown) [Ex6-2],7.92,–
